According to patent publication US12415774B2, “Polyol-based esters of hydroxycarboxylic acids” (KetoLipix Therapeutics GmbH, priority 2019, dated 2025):

What follows are substances tested on pancreatin (Panzytrat 40,000).
Description: Both media are from the company Biorelevant®, Ltd. in Great Britain. In addition, in some experiments porcine pancreas is added (Panzytrat® 40,000, Fa. Allergan).
The pancreatin is used in the form of the commercially available product Panzytrat® 40,000 from the Allergan company. The whole mixture is stirred on a hot plate at 50° C.; the course of the reaction is determined and monitored by continuously recording the acid number over time.
In the case of 3-BHB-di-diglycerol ester, the “cleavage by pancreatin to the free 3-hydroxybutyric acid” value is reported as “cleaved by pancreatin to the free 3-hydroxybutyric acid”.
3-BHB-mono-diglycerol ester was tested, and the “cleavage by pancreatin to the free 3-hydroxybutyric acid” value was “cleaved by pancreatin to the free 3-hydroxybutyric acid”.
3-BHB-tri-diglycerol ester was tested, and the “cleavage by pancreatin to the free 3-hydroxybutyric acid” value was “cleaved by pancreatin to the free 3-hydroxybutyric acid”.
